In PMC3670040, “Structure of Lipid Kinase p110β/p85β Elucidates an Unusual SH2-Domain-Mediated Inhibitory Mechanism” (Molecular Cell, 2011):
Square brackets hold non-standard residues; d marks the D form. Ends that are not written are not given here. pY = N[C@@H](Cc1ccc(OP(=O)(O)O)cc1)C(=O)O

Tests used:
p110β/p85β complexes = experiment: Transcreener ADP formation, soluble monomeric diC8-PIP2 substrate; type: biochemical, mouse; conditions: p110β/p85-niSH2 and p110β/p85-icSH2 complexes
Experimental: (§1) Figure 1 Inhibition of p110β by p85-Type Regulatory Subunits and Activation of the Complexes by RTK Phosphopeptide (A) Domain organization of p110β and the regulatory subunits p85α, p85β, and p55γ. The color scheme for the domains is used for all figures, unless otherwise stated. […] The inhibition is released upon addition of the 10 μM PDGFR pY2. […] The y axis is expressed as a change in fluorescence polarization (ΔmP), which is obtained by subtracting the observed polarization for the construct at a given enzyme concentration from the maximum fluorescence polarization for that construct. […]
(§2) The lipid kinase activity was determined using the Transcreener ADP2 FP Assay (BellBrook Labs, Madison, WI) according to manufacturer‟s specifications. This non-radioactive assay measures activity by quantitating the amount of ADP formed. The ADP formed by PI3K competes with fluorescent ADP tracer for binding to an anti-ADP antibody, thereby decreasing fluorescence polarization. Because of the competitive nature of this assay, the change in fluorescence polarization signal is not a linear function of enzyme activity, and a convenient measure of enzyme activity is the EC50, or the concentration of enzyme necessary to give half-maximal inhibition of labeled ADP binding to the antibody, for a given concentration of substrate and a fixed time of reaction at initial rate. […]

p110β = experiment: Transcreener ADP formation (fluorescence polarization), diC8-PIP2/POPS liposomes, mouse p110β complexes; type: biochemical; conditions: ADP formation, 10 μM, Figure 1B
Experimental: as §1, with “construct. The plateau in these assays arises due to the competitive nature of the ADP detection system, based on displacement of ADP-Alexa 633 tracer from the ADP^2-antibody by ADP generated during the PI3K assay (see Supplemental Experimental Procedures). All measurements were done in triplicates, and the error bars indicate the standard error of the mean (SEM).” for “construct.”
Figure 3 Mutation Y677A in p85β-cSH2 Releases Inhibitory Effect on p110β (A) Kinase activity (ADP formation) of p110β in a complex with p85β-icSH2-Y677A (Y677A-ic) compared to the wild-type complex (ic) in the absence and presence of 10 μM PDGFR pY2 (ADP formation on the y axis expressed as in Figure 1B). […]
as §2

Substance: ESDGG[pY]MDMSKDESID[pY]VPMLDMKGDIKYADIE [pY2, bis-phosphopeptide (PDGFR 735–767, with pY740 and pY751)]
- activity with soluble lipid substrate in the presence of pY2 (p110β/p85β complexes): enhanced
- effect on activity of p110β/p85β-iSH2 or ΔABD-p110β (p110β): did not affect the activity
- effect on kinase activity of complexes containing SH2 domains (p110β; nicSH2, niSH2, or icSH2 complexes): stimulates kinase activity
